Data as given in patent publication US7709482B2, “Polycyclic heteroaryl substituted triazoles useful as Axl inhibitors” (Rigel Pharmaceuticals, Inc., priority 2006, dated 2010).
Where two headings read alike, the source gives them in different places.

Molecular target: T1, Axl (Homo sapiens, UniProt P30530)
T1 construct: endogenous in cells; host or cells: HeLa cells
T1 sequence (P30530 26-894): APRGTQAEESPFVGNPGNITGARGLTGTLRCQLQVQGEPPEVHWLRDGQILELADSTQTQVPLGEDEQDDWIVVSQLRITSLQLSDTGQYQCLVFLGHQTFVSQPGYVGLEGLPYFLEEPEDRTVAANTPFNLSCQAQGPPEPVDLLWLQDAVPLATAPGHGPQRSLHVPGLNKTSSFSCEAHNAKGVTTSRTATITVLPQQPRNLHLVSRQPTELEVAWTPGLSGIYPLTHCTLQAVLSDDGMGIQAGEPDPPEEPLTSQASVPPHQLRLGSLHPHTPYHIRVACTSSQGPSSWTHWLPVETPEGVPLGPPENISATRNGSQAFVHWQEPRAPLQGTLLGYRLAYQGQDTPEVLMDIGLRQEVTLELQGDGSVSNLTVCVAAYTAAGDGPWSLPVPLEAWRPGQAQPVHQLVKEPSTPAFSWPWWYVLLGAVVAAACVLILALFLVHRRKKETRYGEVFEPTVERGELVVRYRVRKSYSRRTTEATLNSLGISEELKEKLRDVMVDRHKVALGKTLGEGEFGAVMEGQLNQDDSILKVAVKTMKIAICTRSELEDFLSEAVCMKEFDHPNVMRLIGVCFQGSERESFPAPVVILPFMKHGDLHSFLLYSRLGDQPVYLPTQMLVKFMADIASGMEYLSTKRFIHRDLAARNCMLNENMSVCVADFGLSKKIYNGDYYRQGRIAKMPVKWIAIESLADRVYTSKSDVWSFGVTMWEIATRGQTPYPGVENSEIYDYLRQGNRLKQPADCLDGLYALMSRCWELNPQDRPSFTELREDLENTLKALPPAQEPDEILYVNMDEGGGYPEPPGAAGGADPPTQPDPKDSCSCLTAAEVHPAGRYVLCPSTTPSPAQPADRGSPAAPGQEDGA
Assay: Phospho-Akt In-Cell Western Assay (inhibition of Axl activity after Axl-antibody cross-linking)
Assay type: cell-based
Conditions: read-out: IC50
In short: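 HeLa cells on poly-L-lysine, starved 24 h in 0.5% FCS DMEM with Axl/Fc 500 ng/mL, pre-treated with compound 1 h at 37 °C, then stimulated 5 min by anti-Axl/anti-mouse antibody cross-linking. Fixed cells probed for phospho-Akt with HRP secondary and chemiluminescent detection.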

[1] = inhibition of Axl activity, Table 1, compounds of formula (Ia)
[2] = Hela cells, phospho-Akt chemiluminescence normalized to relative cell number, compounds of formula (Ib), Table 2

| Structure (SMILES) | IC50 [1] [µM] | IC50 [2] [µM] |
| --- | --- | --- |
| Nc1nc(Nc2ccc3c(c2)CCC(NC2CC2)CC3)nn1-c1cc2c(nn1)-c1ccccc1CCC2 (centres unmarked) [Compound 225, 1-(6,7-dihydro-5H-benzo[6,7]cyclohepta[1,2-c]pyridazin-3-yl)-N^3-(7-cyclopropylamino-6,7,8,9-tetrahydro-5H-benzo[7]annulene-2-yl)-1H-1,2,4-triazole-3,5-diamine] | < 1 |  |
| Nc1nc(Nc2ccc3c(c2)CCC(O)CC3)nn1-c1cc2c(nn1)-c1ccccc1CCC2 (centres unmarked) [Compound 226, 1-(6,7-dihydro-5H-benzo[6,7]cyclohepta[1,2-c]pyridazin-3-yl)-N^3-(7-hydroxy-6,7,8,9-tetrahydro-5H-benzo[7]annulene-2-yl)-1H-1,2,4-triazole-3,5-diamine] | < 1 |  |
| CN1CCN(C2CCc3ccc(Nc4nc(N)n(-c5cc6c(nn5)-c5ccccc5CCC6)n4)cc3CC2)CC1 (centres unmarked) [Compound 227, 1-(6,7-dihydro-5H-benzo[6,7]cyclohepta[1,2-c]pyridazin-3-yl)-N^3-(7-(4-methylpiperazin-1-yl)-6,7,8,9-tetrahydro-5H-benzo[7]annulene-2-yl)-1H-1,2,4-triazole-3,5-diamine] | < 1 |  |
| Nc1nc(Nc2ccc3c(c2)CCC(NCC2CC2)CC3)nn1-c1cc2c(nn1)-c1ccccc1CCC2 (centres unmarked) [Compound 230, 1-(6,7-dihydro-5H-benzo[6,7]cyclohepta[1,2-c]pyridazin-3-yl)-N^3-(7-(cyclopropylmethyl)amino-6,7,8,9-tetrahydro-5H-benzo[7]annulene-2-yl)-1H-1,2,4-triazole-3,5-diamine] | < 1 |  |
| CCN(CC)CCN(C)C1CCc2ccc(Nc3nc(N)n(-c4cc5c(nn4)-c4ccccc4CCC5)n3)cc2CC1 (centres unmarked) [Compound 231, 1-(6,7-dihydro-5H-benzo[6,7]cyclohepta[1,2-c]pyridazin-3-yl)-N^3-(7-(2-(diethylamino)ethyl)methyl-amino-6,7,8,9-tetrahydro-5H-benzo[7]annulene-2-yl)-1H-1,2,4-triazole-3,5-diamine] | < 1 |  |
| CN(C)CCNC1CCc2ccc(Nc3nc(N)n(-c4cc5c(nn4)-c4ccccc4CCC5)n3)cc2CC1 (centres unmarked) [Compound 235] | < 1 |  |
| Nc1nc(Nc2ccc(C3CCN(C4CC5CCC4C5)CC3)cc2)nn1-c1cc2c(nn1)-c1ccccc1SCC2 (centres unmarked) [Compound 236, 1-(6,7-dihydro-5H-benzo[2,3]thiepino[4,5-c]pyridazin-3-yl)-N^3-(4-(1-bicyclo[2.2.1]heptan-2-yl)-piperidin-4-ylphenyl)-1H-1,2,4-triazole-3,5-diamine] | < 1 |  |
| Nc1nc(Nc2ccc3c(c2)CNCC3)n(-c2cc3c(nn2)-c2ccccc2CCC3)n1 [Compound 243, 1-(6,7-dihydro-5H-benzo[6,7]cyclohepta[1,2-c]pyridazin-3-yl)-N^5-(1,2,3,4-tetrahydroisoquinolin-7-yl)-1H-1,2,4-triazole-3,5-diamine] |  | 1 to 10 |
| Nc1nc(Nc2ccc(N3CCN(CC4CC4)CC3)c(F)c2)n(-c2cc3c(nn2)-c2ccccc2CCC3)n1 [Compound 244, 1-(6,7-dihydro-5H-benzo[6,7]cyclohepta[1,2-c]pyridazin-3-yl)-N^5-(3-fluoro-4-(4-cyclopropylmethylpiperazin-1-yl)phenyl)-1H-1,2,4-triazole-3,5-diamine] |  | < 1 |

The next lines start with the values.

| IC50 [1] [µM] | IC50 [2] [µM] | Structure (SMILES) |
| --- | --- | --- |
| < 1 |  | Nc1nc(Nc2ccc3c(c2)CCC(N2CC[C@@H](F)C2)CC3)nn1-c1cc2c(nn1)-c1ccccc1CCC2 (stereo partly drawn) [Compound 222, 1-(6,7-dihydro-5H-benzo[6,7]cyclohepta[1,2-c]pyridazin-3-yl)-N^3-(7-(3-(R)-fluoropyrrolidin-1-yl)-6,7,8,9-tetrahydro-5H-benzo[7]annulene-2-yl)-1H-1,2,4-triazole-3,5-diamine] |
| < 1 |  | Nc1nc(Nc2ccc3c(c2)CCC(=O)CC3)nn1-c1cc2c(nn1)-c1ccccc1CCC2 [Compound 223, 1-(6,7-dihydro-5H-benzo[6,7]cyclohepta[1,2-c]pyridazin-3-yl)-N^3-(7-oxo-6,7,8,9-tetrahydro-5H-benzo[7]annulene-2-yl)-1H-1,2,4-triazole-3,5-diamine] |
| < 1 |  | Nc1nc(Nc2ccc3c(c2)CCC(NC2CCCCC2)CC3)nn1-c1cc2c(nn1)-c1ccccc1CCC2 (centres unmarked) [Compound 224, 1-(6,7-dihydro-5H-benzo[6,7]cyclohepta[1,2-c]pyridazin-3-yl)-N^3-(7-cyclohexylamino-6,7,8,9-tetrahydro-5H-benzo[7]annulene-2-yl)-1H-1,2,4-triazole-3,5-diamine] |
| < 1 |  | Nc1nc(Nc2ccc3c(c2)CCC(NCC2CCCO2)CC3)nn1-c1cc2c(nn1)-c1ccccc1CCC2 (centres unmarked) [Compound 228, 1-(6,7-dihydro-5H-benzo[6,7]cyclohepta[1,2-c]pyridazin-3-yl)-N^3-(7-(tetrahydrofuran-2-ylmethyl)amino-6,7,8,9-tetrahydro-5H-benzo[7]annulene-2-yl)-1H-1,2,4-triazole-3,5-diamine] |
| < 1 |  | Nc1nc(Nc2ccc3c(c2)CCC(NC2CCC2)CC3)nn1-c1cc2c(nn1)-c1ccccc1CCC2 (centres unmarked) [Compound 229, 1-(6,7-dihydro-5H-benzo[6,7]cyclohepta[1,2-c]pyridazin-3-yl)-N^3-(7-cyclobutylamino-6,7,8,9-tetrahydro-5H-benzo[7]annulene-2-yl)-1H-1,2,4-triazole-3,5-diamine] |
| < 1 |  | Nc1nc(Nc2ccc3c(c2)CCC(N2CCC(N4CCCC4)CC2)CC3)nn1-c1cc2c(nn1)-c1ccccc1CCC2 (centres unmarked) [Compound 232, 1-(6,7-dihydro-5H-benzo[6,7]cyclohepta[1,2-c]pyridazin-3-yl)-N^3-(7-(4-pyrrolidin-1-ylpiperidin-1-yl)-6,7,8,9-tetrahydro-5H-benzo[7]annulene-2-yl)-1H-1,2,4-triazole-3,5-diamine] |
| < 1 |  | Nc1nc(Nc2ccc3c(c2)CCC(N2CCC(CN4CCCCC4)CC2)CC3)nn1-c1cc2c(nn1)-c1ccccc1CCC2 (centres unmarked) [Compound 233, 1-(6,7-dihydro-5H-benzo[6,7]cyclohepta[1,2-c]pyridazin-3-yl)-N^3-(7-(4-(piperidin-1-ylmethyl)piperidin-1-yl)-6,7,8,9-tetrahydro-5H-benzo[7]annulene-2-yl)-1H-1,2,4-triazole-3,5-diamine] |
| < 1 |  | Nc1nc(Nc2ccc3c(c2)CCC(N)CC3)nn1-c1cc2c(nn1)-c1ccccc1CCC2 (centres unmarked) [Compound 234, 1-(6,7-dihydro-5H-benzo[6,7]cyclohepta[1,2-c]pyridazin-3-yl)-N^3-(7-amino-6,7,8,9-tetrahydro-5H-benzo[7]annulene-2-yl)-1H-1,2,4-triazole-3,5-diamine] |
| > 20 |  | Nc1nc(Nc2ccc3c(c2)CCC(NCC(=O)O)CC3)nn1-c1cc2c(nn1)-c1ccccc1CCC2 (centres unmarked) [Compound 237, 1-(6,7-dihydro-5H-benzo[6,7]cyclohepta[1,2-c]pyridazin-3-yl)-N^3-(7-(carboxymethyl)amino-6,7,8,9-tetrahydro-5H-benzo[7]annulene-2-yl)-1H-1,2,4-triazole-3,5-diamine] |
| 1 to 10 |  | Nc1nc(Nc2ccc(N3CCC(N4CCCC4)CC3)c(F)c2)nn1-c1cc(-c2ccccc2)c2c(n1)-c1ccccc1CCC2 [Compound 238, 1-(4-phenyl-6,7-dihydro-5H-benzo[6,7]cyclohepta[1,2-b]pyridin-2-yl)-N^3-(3-fluoro-4-(4-pyrrolidin-1-ylpiperidin-1-yl)phenyl)-1H-1,2,4-triazole-3,5-diamine] |
| 1 to 10 |  | COc1cc2ncnc(-n3nc(Nc4cnc5c(c4)CC4(CCC5)OCCO4)nc3N)c2cc1OC [Compound 239, 1-(6,7-dimethoxy-quinazolin-4-yl)-N^3-(5,7,8,9-tetrahydrospiro[cyclohepta[b]pyridine-6,2′-[1,3]dioxolane]-3-yl)-1H-1,2,4-triazole-3,5-diamine] |
| < 1 |  | Cc1csc2c(-n3nc(Nc4cnc5c(c4)CC4(CCC5)OCCO4)nc3N)nc(Cl)nc12 [Compound 240, 1-(2-chloro-7-methylthieno[3,2-d]pyrimidin-4-yl)-N^3-(5,7,8,9-tetrahydrospiro[cyclohepta[b]pyridine-6,2′-[1,3]dioxolane]-3-yl)-1H-1,2,4-triazole-3,5-diamine] |
| < 1 |  | Cc1csc2c(-n3nc(Nc4cnc5c(c4)CCC4(CC5)OCCO4)nc3N)nc(Cl)nc12 [Compound 241, 1-(2-chloro-7-methylthieno[3,2-d]pyrimidin-4-yl)-N^3-(5,6,8,9-tetrahydrospiro[cyclohepta[b]pyridine-7,2′-[1,3]dioxolane]-3-yl)-1H-1,2,4-triazole-3,5-diamine] |
|  | 1 to 10 | CN1CCN(c2ccc(Nc3nc(N)nn3-c3cc4c(nn3)-c3ccccc3CCC4)cc2F)CC1 [Compound 242, 1-(6,7-dihydro-5H-benzo[6,7]cyclohepta[1,2-c]pyridazin-3-yl)-N^5-(3-fluoro-4-(4-methylpiperazin-1-yl)phenyl)-1H-1,2,4-triazole-3,5-diamine] |
